Consider one molecule from patent publication US7169815B2, “3-methoxybenzyl thiourea derivatives and improved lipid compositions containing same” (The United States of America as represented by the …, priority 2000, dated 2007).

The test system of data set [1] is Brine Shrimp (Artemia Salina). The data set is described as follows: in vivo. As to conditions: as Table 7 shows. How it is done: (§1) Brine shrimp eggs (Artemia salina) were obtained from Brine Shrimp Direct, Ogden, Utah and stored at 10° C. until used. Eggs (400 mg) were added to 1 l of deionized water containing 40 g of sea salts (Sigma Chemical Co., St. Louis, Mo.).
(§2) Serial dilutions were performed in 100 μl of seawater in triplicate in the wells of a 96-well microplate to give appropriate concentrations. Control wells for both water and DMSO were included with each experiment. […] The number of non-motile, and the total number of, naupli were counted in each well using a binocular microscope (10×).

The nature of another data set: in vivo. As to conditions: Artemia salina (brine shrimp), in vivo, other: exposure in seawater in microplate wells. How it is done:
as §1, §2

A short description of data set [2]: Decomposition temperature by differential scanning calorimetry. The class given is physicochemical. The following applies: DSC, onset of decrease in slope of temperature-heat flow curve; unit not given (scans in ° C.). How it is done: A dual cell Perkin Elmer differential scanning calorimeter (PE DSC 7, Norwalk, Conn.) was used to determine the thermal transitions of the compounds. All scans were carried out from 30° C. to 200° C. at a heating and cooling rate of 10° C./minute and 40° C./min, respectively, except for 1-(3-methoxybenzyl)-3-(1-propenyl) thiourea, for which the scans were carried out from 0° C. to 200° C. at a heating rate of 10° C./min, and 1-(3-methoxybenzyl)-3-octadecyl thiourea, for which both the heating and cooling rates were 10° C./min. 1,3-di(3-methoxybenzyl) thiourea and 1-(3-methoxybenzyl)-3-dodecyl thiourea were heated to 300° C., and 1-(3-methoxybenzyl)-3-(4-methoxybenzoyl) thiourea was heated to 250° C. to determine the decomposition temperature. The decomposition temperature was taken as the onset of a decrease in the slope of the temperature-heat flow DSC curve. The first heating curve was recorded in all cases, and liquid nitrogen was used to quench the samples after the first heating.
For orientation: In DSC, transitions show as peaks or steps in heat flow.

Data set [3] is described as follows: OSI test of unrefined (crude) meadowfoam seed oil, alone or mixed with additive. As to conditions: 110° C. The source says: (§3) A presently preferred method of determining oxidative stability of lipids and oils employs the Oxidative Stability Index (OSI), which determines the oxidative stability of an oil by passing air through a sample under stringent temperature control. (Firestone, Oxidative Stability Index (OSI): Official Methods of Recommended Practices of the American Oil Chemists' Society (AOCS), 4th Ed. American Oil Chemists Society, Champaign, Ill., AOCS Official Method Cd 12b-92, 1993.) In this method, a stream of air is passed through the oil sample, which aids in the rapid degradation of the triglyceride into volatile organic acids. The air stream flushes the volatile acids from the oil into a conductivity cell containing water where the acids are solubilized. These acids, once dissolved in the water solution, disassociate into ions, thus changing the conductivity of the water. Therefore, a continuous measure of the conductivity of the cell by computer will indicate when a rapid rise in the conductivity occurs that corresponds to the induction point, oxidative failure of the sample. The time to the induction point is the OSI time. […] Saturated fatty acid methyl ester (FAME) standards commercially available from Alltech Associates (Deerfield, Ill.) may be used to calibrate the OSI determinations.
(§4) OSI determinations may be performed on an oxidative stability instrument manufactured by Omnion (Rockland, Mass.) using the AOCS method described in the above-disclosed Firestone reference. Lipid or oil samples may be run at 110° C. and FAMEs may be tested at 90° C., with air flow set at 35 kPa with a resulting velocity of about 140 ml/min. A presently preferred method for determining OSI values is described by T. A. Isbell et al., “Oxidative Stability Index of Vegetable Oils in Binary Mixtures with Meadowfoam Oil,” Industrial Crops and Products 9, 115–123 (1999).
(§5) Unless otherwise stated, Oxidative Stability Index (OSI) values were determined on 5.00 ±0.05 g lipid or oil samples in triplicate according to AOCS Official Method Cd 12b-92 (AOCS, 1993) at 90° C., 110° C. and/or 130° C. on an oxidative stability instrument manufactured by Omnion (Rockland, Mass.). Details of the procedure have been published by Isbell et al., “Oxidative Stability Index of Vegetable Oils in Binary Mixtures with Meadowfoam Oil,” Ind. Crops Prod. 9, 115–123 (1999). When compounds of the present invention were added to the lipid or oil sample being tested, the compounds (0.1% to 1.0% by weight) were added to the test lipid or oil (20 g) and dissolved or dispersed at room temperature before triplicate 5.00 g samples of lipid or oil with an added compound of the invention were weighed into the OSI test tube. […]

Data set [4] is described as follows: Solubility in refined meadowfoam seed oil (HPLC). As to conditions: oil or lipid, thermodynamic from solid, cooled to room temperature overnight. It counts as physicochemical. How it is done: Typical retention times were 7–9 min for the thioureas. Samples were weighed accurately (about 0.1 g) into 1.00 g of refined meadowfoam seed oil and heated to temperature (either 30° C. or 50° C.) for 4 h with occasional shaking. The samples were cooled to room temperature overnight, centrifuged and 0.3 g of the supernatant oil was removed and diluted with 1 ml CHCl3 for testing.

Data set [5] in a line: Behaviour on addition of water to DMSO solution (sample preparation). The class given is physicochemical. The following applies: dissolved in 50 μl DMSO, water added to make 1 mg/ml. How it is done:
Test compounds (1–2 mg) were originally made up at a concentration of 1 mg/ml in artificial seawater, except for water insoluble compounds, which were dissolved in 50 μl of dimethyl sulfoxide (DMSO) prior to adding enough water to make a 1 mg/ml solution. Serial dilutions were performed in 100 μl of seawater in triplicate in the wells of a 96-well microplate to give appropriate concentrations. Control wells for both water and DMSO were included with each experiment. A 100 μl solution of naupli (10–30) was added to each well, and the covered plate was incubated for 24 h at 27° C. The number of non-motile, and the total number of, naupli were counted in each well using a binocular microscope (10×). LC50 values were then calculated by Probit analysis (Finney, D. J., 1971, “Probit Analysis,” 3rd Ed.; University Press: Cambridge [Eng.]).

Data set [6] is described as follows: OSI test of jojoba oil mixed with additive. The following applies: 110° C.
Source text: as §3, §4, §5

Structures are written as SMILES. In brackets after ≈: the same amount, converted by molar mass. Where two headings read alike, the source gives them in different places. A value given as a limit tells only on which side of the number the result lay.

On to `COc1cccc(CNC(=S)NCc2cccc(OC)c2)c1` [1,3-di(3-methoxybenzyl) thiourea], for which the “toxicity against brine shrimp, in words” value in data set [1] is on record as “very low”. Also, in the data set “in vivo”, the median lethal concentration (LC50) at 24 h was above 1000 µg/mL. This molecule showed a Decomposition Temperature in data set [2] of 265 °C. The OSI Time amounted to 76.4 h in data set [3] (0.1% additive), 211 h in data set [3] (1% additive), 64.2 h in data set [6] (0.1% additive) and 168 h in data set [6] (1% additive). The “improvement of OSI time compared to meadowfoam oil alone” value was found to be 15% in data set [3] (0.1% additive) and 218% in data set [3] (1% additive). Also, the solubility at 4 h in data set [4] (heated to 30° C. for 4 h, read-out: Solubility at 30° C.) is 2480 µg/mL (≈ 7.84 mM); in data set [4] (heated to 50° C. for 4 h, read-out: Solubility at 50° C.), 3520 µg/mL (≈ 11.1 mM). In addition, the “behaviour upon the addition of water” value in data set [5] was “precipitated out of solution”. The “improvement of OSI time compared to jojoba oil alone” value in data set [6] (0.1% additive) came to 30%; in data set [6] (1% additive) it was 241%.

As a reminder, the LC50 is the concentration that kills 50% of the test population. The solubility is the dissolved amount per volume that the medium holds.
